Results taken from ChEMBL document CHEMBL5465560, “Selectivity Literature for EUbOPEN Chemogenomic Library” (2024).
Blank lines part the entries; values can stand above or below the molecule they belong to.

What was measured:
[1] = biological target: T1, Serine/threonine-protein kinase haspin (Homo sapiens) (UniProt Q8TF76); test: Selectivity interaction (KinomeScan (DiscoverX)) EUB0001079a GSG2; conditions: at 1 µM
T1 sequence (whole entry): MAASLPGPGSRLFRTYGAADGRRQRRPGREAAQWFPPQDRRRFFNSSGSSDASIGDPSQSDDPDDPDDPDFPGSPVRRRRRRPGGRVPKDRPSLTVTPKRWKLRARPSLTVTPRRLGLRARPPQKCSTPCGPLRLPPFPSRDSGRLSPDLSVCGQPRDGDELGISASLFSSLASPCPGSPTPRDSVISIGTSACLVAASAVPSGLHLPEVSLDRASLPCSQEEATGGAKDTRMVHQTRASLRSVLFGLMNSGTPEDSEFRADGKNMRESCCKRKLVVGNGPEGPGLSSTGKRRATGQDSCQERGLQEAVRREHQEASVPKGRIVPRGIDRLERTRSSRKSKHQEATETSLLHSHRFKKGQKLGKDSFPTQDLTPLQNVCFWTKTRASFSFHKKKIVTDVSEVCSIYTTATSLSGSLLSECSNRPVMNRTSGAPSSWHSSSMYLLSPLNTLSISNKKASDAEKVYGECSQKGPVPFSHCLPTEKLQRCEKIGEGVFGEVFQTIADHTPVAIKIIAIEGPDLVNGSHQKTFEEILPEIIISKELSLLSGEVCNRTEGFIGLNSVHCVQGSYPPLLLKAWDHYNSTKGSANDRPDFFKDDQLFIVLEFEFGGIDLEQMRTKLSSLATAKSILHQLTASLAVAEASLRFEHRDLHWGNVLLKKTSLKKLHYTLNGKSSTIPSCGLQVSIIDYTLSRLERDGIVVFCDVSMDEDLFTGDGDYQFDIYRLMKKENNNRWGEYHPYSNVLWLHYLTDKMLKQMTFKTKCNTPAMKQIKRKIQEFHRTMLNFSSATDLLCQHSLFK

[2] = biological target: T2, Receptor-interacting serine/threonine-protein kinase 4 (Homo sapiens) (UniProt P57078); test: Selectivity interaction (KinomeScan (DiscoverX)) EUB0001079a RIPK4; conditions: at 1 µM
T2 sequence (whole entry): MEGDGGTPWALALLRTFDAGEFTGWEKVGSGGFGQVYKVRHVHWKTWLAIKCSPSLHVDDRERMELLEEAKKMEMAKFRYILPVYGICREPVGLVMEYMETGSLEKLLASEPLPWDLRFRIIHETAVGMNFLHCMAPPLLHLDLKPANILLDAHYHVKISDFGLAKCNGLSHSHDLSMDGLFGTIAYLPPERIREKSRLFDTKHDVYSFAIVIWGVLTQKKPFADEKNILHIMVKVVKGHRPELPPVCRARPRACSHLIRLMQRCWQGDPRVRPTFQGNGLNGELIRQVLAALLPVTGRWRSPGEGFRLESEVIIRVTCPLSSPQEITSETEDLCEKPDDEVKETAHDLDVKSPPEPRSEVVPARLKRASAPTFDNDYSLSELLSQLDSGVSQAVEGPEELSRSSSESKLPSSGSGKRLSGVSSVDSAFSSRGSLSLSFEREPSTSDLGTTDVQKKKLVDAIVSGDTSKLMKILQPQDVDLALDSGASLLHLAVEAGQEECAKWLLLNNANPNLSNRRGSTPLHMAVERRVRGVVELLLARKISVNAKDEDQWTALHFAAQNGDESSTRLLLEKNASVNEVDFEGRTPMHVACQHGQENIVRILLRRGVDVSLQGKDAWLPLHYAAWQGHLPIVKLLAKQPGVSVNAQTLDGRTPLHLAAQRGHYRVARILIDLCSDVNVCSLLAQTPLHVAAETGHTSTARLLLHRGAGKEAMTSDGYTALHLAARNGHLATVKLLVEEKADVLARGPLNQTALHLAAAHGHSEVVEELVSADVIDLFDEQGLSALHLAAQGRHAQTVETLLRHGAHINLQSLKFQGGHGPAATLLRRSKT

[3] = biological target: Calcium/calmodulin-dependent protein kinase type II subunit beta (Homo sapiens) (UniProt Q13554); test: Selectivity interaction (KinomeScan (DiscoverX)) EUB0001079a CAMK2B; conditions: at 1 µM
[4] = biological target: T3, Serine/threonine-protein kinase ULK3 (Homo sapiens) (UniProt Q6PHR2); test: Selectivity interaction (ActivX KiNativ screen (ex vivo kinase selectivity in human PBMCs)) EUB0001619a ULK3; type: cell-based; conditions: PBMC, at 1 µM
T3 sequence (whole entry): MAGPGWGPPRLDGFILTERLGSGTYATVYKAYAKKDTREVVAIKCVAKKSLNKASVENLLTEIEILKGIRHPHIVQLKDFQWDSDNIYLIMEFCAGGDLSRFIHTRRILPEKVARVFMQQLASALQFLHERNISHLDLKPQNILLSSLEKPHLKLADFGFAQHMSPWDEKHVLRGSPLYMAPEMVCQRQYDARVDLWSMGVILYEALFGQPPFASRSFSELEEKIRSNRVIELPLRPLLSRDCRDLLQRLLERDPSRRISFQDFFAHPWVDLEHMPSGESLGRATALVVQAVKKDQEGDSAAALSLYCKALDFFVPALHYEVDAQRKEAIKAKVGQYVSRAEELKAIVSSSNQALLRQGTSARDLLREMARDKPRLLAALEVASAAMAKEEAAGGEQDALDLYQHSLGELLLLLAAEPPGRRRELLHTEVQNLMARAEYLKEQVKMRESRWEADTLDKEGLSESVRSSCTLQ

[5] = biological target: MAP/microtubule affinity-regulating kinase 3 (Homo sapiens) (UniProt P27448); conditions: at 10 µM
[6] = biological target: Phosphatidylinositol 3-kinase catalytic subunit type 3 (Homo sapiens, UniProt Q8NEB9); test: Selectivity interaction (ActivX KiNativ screen (kinase selectivity in THP-1 cell lysates)) EUB0000639a PIK3C3; type: subcellular; conditions: lysate, at 0.04 µM
[7] = biological target: Vascular endothelial growth factor receptor 3 (Homo sapiens, UniProt P35916); test: Selectivity interaction (KinomeScan (DiscoverX)) EUB0000229b FLT4; conditions: at 10 µM
[8] = biological target: Casein kinase I isoform gamma-3 (Homo sapiens) (UniProt Q9Y6M4); test: Selectivity interaction (Kinase panel (Z-LYTE Assay)) EUB0001632a CSNK1G3; conditions: at 10 µM
[9] = biological target: CDK1/Cyclin A (Homo sapiens) (UniProt P06493+P20248); test: Selectivity interaction (LanthaScreen Eu Kinase Binding Assay) EUB0001632a CDK1; type: protein-complex assay; conditions: at 10 µM
Chain of CDK1/Cyclin A (Homo sapiens) (P06493 whole entry, looked up): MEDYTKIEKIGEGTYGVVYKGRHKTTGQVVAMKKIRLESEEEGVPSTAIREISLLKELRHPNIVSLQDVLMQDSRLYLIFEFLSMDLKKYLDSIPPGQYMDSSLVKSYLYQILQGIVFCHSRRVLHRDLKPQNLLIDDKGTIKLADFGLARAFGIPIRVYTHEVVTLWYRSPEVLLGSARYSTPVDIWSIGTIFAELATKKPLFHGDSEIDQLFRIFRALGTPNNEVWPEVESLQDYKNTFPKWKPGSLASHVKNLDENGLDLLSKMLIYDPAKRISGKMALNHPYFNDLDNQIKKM
Chain of CDK1/Cyclin A (Homo sapiens) (P20248 whole entry, looked up): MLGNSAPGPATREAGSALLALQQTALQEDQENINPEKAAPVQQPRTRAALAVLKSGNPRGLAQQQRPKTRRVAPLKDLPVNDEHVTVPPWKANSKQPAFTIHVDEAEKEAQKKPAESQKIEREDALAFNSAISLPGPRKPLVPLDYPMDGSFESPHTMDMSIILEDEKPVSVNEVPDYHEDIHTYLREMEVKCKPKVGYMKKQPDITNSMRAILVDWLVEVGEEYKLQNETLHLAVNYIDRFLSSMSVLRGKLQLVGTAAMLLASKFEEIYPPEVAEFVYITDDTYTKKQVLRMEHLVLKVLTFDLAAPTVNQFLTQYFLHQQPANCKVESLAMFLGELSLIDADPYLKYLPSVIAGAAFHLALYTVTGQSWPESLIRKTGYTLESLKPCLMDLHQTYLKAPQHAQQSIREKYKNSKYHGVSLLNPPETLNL

Chain of Calcium/calmodulin-dependent protein kinase type II subunit beta (Homo sapiens) (Q13554 whole entry): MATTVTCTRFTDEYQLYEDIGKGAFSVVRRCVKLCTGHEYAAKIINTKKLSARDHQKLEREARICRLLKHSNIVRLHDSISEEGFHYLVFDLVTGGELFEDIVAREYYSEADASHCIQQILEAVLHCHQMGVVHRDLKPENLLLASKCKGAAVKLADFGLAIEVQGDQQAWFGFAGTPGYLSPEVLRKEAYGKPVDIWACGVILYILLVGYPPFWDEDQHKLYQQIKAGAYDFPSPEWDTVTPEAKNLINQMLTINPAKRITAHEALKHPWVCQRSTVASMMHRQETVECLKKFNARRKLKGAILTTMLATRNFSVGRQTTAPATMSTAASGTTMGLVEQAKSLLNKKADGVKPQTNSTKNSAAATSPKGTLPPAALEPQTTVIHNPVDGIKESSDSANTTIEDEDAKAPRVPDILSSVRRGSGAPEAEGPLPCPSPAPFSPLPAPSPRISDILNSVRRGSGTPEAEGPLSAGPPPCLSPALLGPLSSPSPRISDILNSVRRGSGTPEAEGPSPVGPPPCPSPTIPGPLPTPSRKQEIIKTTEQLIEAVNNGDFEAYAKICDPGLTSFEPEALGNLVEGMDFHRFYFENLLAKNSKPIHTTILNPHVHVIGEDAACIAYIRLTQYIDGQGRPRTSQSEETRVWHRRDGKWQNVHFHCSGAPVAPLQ
Chain of Vascular endothelial growth factor receptor 3 (P35916 whole entry, canonical isoform): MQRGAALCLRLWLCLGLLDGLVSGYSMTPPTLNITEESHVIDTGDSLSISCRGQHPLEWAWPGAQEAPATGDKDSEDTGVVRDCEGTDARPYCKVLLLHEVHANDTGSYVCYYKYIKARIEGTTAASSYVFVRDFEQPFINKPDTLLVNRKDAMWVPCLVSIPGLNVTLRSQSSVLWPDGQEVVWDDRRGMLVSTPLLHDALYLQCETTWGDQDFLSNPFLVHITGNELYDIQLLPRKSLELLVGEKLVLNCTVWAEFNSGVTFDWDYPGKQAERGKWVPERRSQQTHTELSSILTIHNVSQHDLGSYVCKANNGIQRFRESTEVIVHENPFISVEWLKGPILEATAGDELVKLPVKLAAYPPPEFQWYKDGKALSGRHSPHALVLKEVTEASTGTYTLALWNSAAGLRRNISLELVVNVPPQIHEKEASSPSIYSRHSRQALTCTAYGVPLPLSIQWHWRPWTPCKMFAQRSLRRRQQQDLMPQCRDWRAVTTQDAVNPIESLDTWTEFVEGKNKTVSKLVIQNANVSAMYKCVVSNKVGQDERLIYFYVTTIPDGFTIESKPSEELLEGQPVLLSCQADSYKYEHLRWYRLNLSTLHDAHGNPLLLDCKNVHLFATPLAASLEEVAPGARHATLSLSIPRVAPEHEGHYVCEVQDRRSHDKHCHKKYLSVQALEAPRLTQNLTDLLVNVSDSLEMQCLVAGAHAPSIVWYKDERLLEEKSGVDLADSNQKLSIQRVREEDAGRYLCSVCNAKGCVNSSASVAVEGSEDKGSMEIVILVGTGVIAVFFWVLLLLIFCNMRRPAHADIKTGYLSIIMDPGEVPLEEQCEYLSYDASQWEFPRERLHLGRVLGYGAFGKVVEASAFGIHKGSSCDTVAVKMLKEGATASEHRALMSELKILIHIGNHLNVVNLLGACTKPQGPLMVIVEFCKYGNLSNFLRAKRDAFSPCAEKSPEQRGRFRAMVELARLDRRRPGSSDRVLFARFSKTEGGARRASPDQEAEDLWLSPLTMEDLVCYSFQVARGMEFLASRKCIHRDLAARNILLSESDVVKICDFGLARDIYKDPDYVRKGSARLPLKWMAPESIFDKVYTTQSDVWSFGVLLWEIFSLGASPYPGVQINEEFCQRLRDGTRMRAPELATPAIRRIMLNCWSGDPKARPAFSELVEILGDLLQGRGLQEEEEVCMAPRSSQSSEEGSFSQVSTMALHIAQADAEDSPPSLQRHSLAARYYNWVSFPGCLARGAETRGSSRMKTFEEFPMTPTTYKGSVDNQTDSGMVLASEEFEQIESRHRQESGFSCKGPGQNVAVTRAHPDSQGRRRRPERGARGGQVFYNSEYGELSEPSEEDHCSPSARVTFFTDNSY
Chain of Phosphatidylinositol 3-kinase catalytic subunit type 3 (Q8NEB9 whole entry): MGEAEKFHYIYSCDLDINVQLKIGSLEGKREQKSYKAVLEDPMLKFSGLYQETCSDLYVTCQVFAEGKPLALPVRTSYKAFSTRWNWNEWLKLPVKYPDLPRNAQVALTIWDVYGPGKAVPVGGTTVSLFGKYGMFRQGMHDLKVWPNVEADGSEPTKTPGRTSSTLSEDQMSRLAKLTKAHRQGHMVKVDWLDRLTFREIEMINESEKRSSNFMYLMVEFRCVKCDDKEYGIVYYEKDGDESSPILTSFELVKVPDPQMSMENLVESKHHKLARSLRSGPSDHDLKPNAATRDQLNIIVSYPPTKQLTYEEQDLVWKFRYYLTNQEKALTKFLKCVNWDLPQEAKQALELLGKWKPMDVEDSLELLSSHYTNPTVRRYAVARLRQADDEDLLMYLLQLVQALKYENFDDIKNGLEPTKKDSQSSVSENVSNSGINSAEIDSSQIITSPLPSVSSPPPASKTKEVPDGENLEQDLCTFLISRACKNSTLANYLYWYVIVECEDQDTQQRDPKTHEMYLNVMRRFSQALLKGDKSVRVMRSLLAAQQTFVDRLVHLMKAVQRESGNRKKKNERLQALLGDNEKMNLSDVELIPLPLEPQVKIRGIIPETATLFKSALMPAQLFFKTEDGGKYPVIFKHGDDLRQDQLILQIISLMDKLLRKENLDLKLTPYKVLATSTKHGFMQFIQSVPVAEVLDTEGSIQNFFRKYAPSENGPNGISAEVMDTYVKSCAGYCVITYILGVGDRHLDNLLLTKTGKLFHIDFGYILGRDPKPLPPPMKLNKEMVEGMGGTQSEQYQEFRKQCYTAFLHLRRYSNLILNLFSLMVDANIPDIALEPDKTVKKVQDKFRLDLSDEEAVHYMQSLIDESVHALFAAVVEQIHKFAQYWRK
Chain of Casein kinase I isoform gamma-3 (Homo sapiens) (Q9Y6M4 whole entry, looked up, canonical isoform): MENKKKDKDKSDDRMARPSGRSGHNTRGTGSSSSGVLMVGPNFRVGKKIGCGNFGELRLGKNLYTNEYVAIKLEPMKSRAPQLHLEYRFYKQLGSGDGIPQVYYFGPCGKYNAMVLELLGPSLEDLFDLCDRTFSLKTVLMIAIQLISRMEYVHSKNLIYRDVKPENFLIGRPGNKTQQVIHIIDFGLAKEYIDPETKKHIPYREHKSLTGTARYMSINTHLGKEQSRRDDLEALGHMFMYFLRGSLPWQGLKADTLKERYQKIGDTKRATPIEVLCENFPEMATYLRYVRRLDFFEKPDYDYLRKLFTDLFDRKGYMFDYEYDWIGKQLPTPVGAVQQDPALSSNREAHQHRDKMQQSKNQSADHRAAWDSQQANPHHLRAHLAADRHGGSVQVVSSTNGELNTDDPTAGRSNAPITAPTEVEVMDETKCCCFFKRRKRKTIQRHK
Chain of MAP/microtubule affinity-regulating kinase 3 (Homo sapiens) (P27448 whole entry, looked up): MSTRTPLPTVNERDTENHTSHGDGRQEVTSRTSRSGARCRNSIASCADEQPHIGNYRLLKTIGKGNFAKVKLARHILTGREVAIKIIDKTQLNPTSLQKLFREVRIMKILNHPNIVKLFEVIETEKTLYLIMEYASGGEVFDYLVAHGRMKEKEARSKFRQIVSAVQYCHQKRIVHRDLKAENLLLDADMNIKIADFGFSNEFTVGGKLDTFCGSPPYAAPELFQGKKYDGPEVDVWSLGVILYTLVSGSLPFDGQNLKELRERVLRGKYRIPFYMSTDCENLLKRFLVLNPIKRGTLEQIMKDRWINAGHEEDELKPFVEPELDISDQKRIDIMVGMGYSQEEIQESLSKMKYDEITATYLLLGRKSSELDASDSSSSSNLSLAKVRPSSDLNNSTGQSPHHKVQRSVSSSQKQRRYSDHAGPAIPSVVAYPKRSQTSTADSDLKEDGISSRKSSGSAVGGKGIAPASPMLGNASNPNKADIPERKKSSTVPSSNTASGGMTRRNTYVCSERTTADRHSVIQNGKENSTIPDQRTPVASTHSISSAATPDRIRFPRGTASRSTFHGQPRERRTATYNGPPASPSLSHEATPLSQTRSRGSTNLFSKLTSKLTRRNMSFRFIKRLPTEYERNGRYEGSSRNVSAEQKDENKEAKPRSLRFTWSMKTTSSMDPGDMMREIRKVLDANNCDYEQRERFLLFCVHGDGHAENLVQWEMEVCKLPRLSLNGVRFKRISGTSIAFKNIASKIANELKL

SMILES: Nc1cnc(N2CCc3cc(S(=O)(=O)Nc4c(F)cc(Cl)cc4F)cc(N4CCCC4=O)c32)nc1 [TP-020n]
% of control [1]: 100%
% of control [2]: 76%
% of control [3]: 100%

SMILES: N#Cc1cccc(-c2c[nH]c3ncnc(N4CCOCC4)c23)c1
% of inhibition [4]: 5%

SMILES: Cc1cc([C@@H](C)Nc2ccccc2C(=O)O)c2nc(N3CCOCC3)cc(=O)n2c1 [AZD-6482]
% of control [5]: 89%

% of inhibition [6]: -7%
SMILES: CC[C@@H]1[C@H](F)C(=O)N[C@@H]1COc1nccc2cc(C(N)=O)c(OC)cc12 [ZIMLOVISERTIB]

SMILES: COc1cc(N(C)c2ccnc3ccc(C(F)(F)F)cc23)cc(OC)c1OC
% binding [7]: 96%

% of control [8]: 6.17%
% of inhibition [9]: -246%
SMILES: Cn1cc(-n2cnc3c(NCc4nc5cc(Cl)c(Cl)cc5[nH]4)nc(N4CCOCC4)nc32)cn1
